Each structure is given as a SMILES string.

In the first assay the target is T1, GPBAR1 (Homo sapiens, UniProt Q8TDU6).
T1 construct: expressed in transfected cells; host or cells: HEK-293T
T1 sequence (Q8TDU6 1-330): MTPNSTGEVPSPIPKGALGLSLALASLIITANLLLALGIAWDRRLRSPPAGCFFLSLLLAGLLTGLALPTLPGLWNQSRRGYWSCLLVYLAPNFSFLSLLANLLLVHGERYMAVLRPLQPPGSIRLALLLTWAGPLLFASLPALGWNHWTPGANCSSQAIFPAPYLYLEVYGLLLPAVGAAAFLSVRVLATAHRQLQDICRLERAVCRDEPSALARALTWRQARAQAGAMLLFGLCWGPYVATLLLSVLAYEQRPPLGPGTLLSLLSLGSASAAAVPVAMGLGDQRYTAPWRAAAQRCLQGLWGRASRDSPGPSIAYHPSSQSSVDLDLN
The assay can be described thus: Luciferase reporter (CRE) transactivation assay in HEK-293T cells transfected with GPBAR1. Type of assay: cell-based. The conditions noted are these: 10 μM, compared to TLCA. How it is done: The activity of compounds 1–14 on GPBAR1 was evaluated in a luciferase reporter assay using HEK-293T cells transfected with GPBAR1. The efficacy of tested compounds (Table 1) was measured using taurolithocholic acid (TLCA) as GPBAR1 reference compound[10],[11]. Each compound was tested at the concentration of 10 μM and transactivation activity of TLCA on a cAMP responsive element (CRE) (i.e. TGR5/GPBAR1) was considered equal to 100%. […] Thus, 9 and 10 (Table 1) turned out to be the most promising derivatives considering their low EC50 values and high activity efficacy. To further characterize the pharmacological properties of these compounds, we expanded their in vitro profile to common off-targets for bile acid receptor ligands.
Transactivation assay on HEK-293T cells was performed to investigate GPBAR1 activation, using compound 1–14 and TLCA as positive control at 10 µM, as previously reported.
Supplementary Figure S4. HEK-293T cells were transiently transfected with GPBAR1 and a reporter gene containing a cAMP responsive element in front of the luciferase gene. Cells were stimulated with compounds A-L (10 μM). TLCA (10 μM) was used as positive control. Luciferase activity served as a measure of the rise in intracellular cAMP following activation of GPBAR1. In all panels, results are expressed as mean ± standard error. ^∗p < 0.05 versus not treated cells (NT).
Background: In a reporter assay the amount or activity of a reporter protein is the signal.
With `O=C(Nc1ccc(C(F)(F)F)cc1)N[C@@H]1CN[C@H](c2nc(-c3ccccc3)no2)C1` [Compound 4], the “GPBAR1 agonist activity in transactivation assay” value was “moderate GPBAR1 agonist activity”.

The same assay, now with this note: HEK-293T, maximal transactivation of CRE, compound 10 μM vs TLCA 10 μM = 100%; HEK-293T; read-out: Efficacy (% vs TLCA).
Consider `O[C@H]1CN[C@H](c2nc(-c3ccccc3)no2)C1` [Compound 1], for which the Emax at 10 µM is 58 to 121%.

In the case of `[N-]=[N+]=N[C@@H]1CN[C@H](c2nc(-c3ccccc3)no2)C1` [Compound 2], the Emax at 10 µM lay in the range of 58 to 121%.

Take `N[C@@H]1CN[C@H](c2nc(-c3ccccc3)no2)C1` [Compound 3]: the Emax at 10 µM was 58 to 121%.

Turning to `O=C(Nc1ccc(C(F)(F)F)cc1)N[C@@H]1CN[C@H](c2nc(-c3ccccc3)no2)C1` [Compound 4], the Emax at 10 µM fell in the range of 58 to 121%.

For the molecule `Cc1ccc(NC(=O)N[C@@H]2CN[C@H](c3nc(-c4ccccc4)no3)C2)cc1` [Compound 6], the Emax at 10 µM lay within 58 to 121%.

For `O=C(NCc1ccccc1)N[C@@H]1CN[C@H](c2nc(-c3ccccc3)no2)C1` [Compound 11], the Emax at 10 µM was in the range of 58 to 121%.
